Results reported in ChEMBL document CHEMBL1147955, “Novel pyridyl-fused 3-amino chroman derivatives with dual action at serotonin transporter and 5-HT1A receptor” (Bioorg Med Chem Lett, 2007).

Key:
[1] = target: Sodium-dependent serotonin transporter (Rattus norvegicus, UniProt P31652); assay: Displacement of [3H]paroxetine from 5HT reuptake site of rat cortical 5HTT
[2] = target: T1, 5-hydroxytryptamine receptor 1A (Homo sapiens, UniProt P08908); assay: Displacement of [3H]8-OH-DPAT from human 5HT1A receptor expressed in CHO cells; assay type: cell-based
T1 sequence (P08908 whole entry): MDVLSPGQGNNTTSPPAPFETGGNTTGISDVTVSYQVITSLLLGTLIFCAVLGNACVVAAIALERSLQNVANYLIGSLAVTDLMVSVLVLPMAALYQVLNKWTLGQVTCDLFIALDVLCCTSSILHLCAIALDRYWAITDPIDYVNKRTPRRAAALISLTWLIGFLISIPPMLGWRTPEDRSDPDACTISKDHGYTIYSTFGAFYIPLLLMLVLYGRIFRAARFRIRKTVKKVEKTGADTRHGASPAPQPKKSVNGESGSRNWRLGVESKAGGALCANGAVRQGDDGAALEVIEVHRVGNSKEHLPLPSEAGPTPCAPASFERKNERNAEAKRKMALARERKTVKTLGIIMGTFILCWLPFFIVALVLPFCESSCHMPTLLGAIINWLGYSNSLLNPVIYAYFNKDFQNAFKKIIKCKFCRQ

[3] = target: T2, Adrenergic receptor alpha-1 (Rattus norvegicus, UniProt P15823+P23944+P43140); assay: Displacement of [3H]prazosin from adrenergic alpha-1 receptor in rat cortical membranes at 1 uM; assay type: cell membranes, Membrane
T2 sequence (P15823 whole entry): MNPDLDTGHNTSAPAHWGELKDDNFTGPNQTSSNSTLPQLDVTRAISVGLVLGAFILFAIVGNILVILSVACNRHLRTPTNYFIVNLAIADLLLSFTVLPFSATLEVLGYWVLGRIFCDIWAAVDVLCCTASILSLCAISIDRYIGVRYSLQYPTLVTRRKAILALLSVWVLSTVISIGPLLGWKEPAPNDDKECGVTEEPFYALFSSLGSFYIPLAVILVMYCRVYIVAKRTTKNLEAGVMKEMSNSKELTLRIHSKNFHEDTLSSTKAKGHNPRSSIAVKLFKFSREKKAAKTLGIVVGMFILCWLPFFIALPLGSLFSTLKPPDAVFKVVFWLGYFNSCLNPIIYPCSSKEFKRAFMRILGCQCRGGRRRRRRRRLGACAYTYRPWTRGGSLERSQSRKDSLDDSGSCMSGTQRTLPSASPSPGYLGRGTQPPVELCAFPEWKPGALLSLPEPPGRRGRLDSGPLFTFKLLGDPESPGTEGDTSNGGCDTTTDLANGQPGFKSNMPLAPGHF
T2 sequence (P23944 whole entry): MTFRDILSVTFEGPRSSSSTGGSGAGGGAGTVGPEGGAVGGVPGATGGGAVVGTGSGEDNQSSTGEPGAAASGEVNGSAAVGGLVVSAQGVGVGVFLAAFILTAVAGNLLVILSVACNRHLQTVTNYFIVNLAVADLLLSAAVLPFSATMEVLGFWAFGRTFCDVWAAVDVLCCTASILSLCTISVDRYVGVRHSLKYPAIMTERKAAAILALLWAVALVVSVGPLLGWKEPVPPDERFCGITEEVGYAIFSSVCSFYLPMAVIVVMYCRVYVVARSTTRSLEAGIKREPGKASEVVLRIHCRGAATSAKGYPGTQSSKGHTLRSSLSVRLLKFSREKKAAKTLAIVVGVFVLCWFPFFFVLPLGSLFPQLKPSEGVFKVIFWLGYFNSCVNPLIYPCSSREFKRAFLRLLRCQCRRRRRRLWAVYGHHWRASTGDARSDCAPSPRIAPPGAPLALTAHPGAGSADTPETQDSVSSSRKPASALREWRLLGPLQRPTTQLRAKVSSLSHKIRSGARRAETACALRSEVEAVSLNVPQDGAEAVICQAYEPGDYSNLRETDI
T2 sequence (P43140 whole entry): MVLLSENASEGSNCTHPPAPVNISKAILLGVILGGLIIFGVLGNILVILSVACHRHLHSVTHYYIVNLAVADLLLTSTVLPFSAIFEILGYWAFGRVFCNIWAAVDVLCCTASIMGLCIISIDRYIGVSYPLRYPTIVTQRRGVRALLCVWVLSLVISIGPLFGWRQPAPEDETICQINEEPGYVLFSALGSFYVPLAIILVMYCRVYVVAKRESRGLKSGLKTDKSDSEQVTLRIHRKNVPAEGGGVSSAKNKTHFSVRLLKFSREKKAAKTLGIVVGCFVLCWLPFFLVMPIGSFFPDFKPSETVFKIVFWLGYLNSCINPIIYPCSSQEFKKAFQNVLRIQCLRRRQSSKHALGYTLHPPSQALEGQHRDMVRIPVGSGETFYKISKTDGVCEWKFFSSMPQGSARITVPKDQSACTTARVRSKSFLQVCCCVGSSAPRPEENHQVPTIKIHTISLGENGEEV

[4] = target: T1, 5-hydroxytryptamine receptor 1A; assay: Displacement of [3H]8-OH-DPAT from human 5HT1A receptor expressed in CHO cells at 1 uM; assay type: cell-based
[5] = target: T2, Adrenergic receptor alpha-1; assay: Displacement of [3H]prazosin from adrenergic alpha-1 receptor in rat cortical membranes; assay type: cell membranes, Membrane
[6] = target: T1, 5-hydroxytryptamine receptor 1A; assay: Agonist activity at human 5HT1A receptor expressed in CHO membrane assessed as stimulation of [35S]GTP-gamma-S binding; assay type: functional, cell membranes
[7] = target: T3, 5-hydroxytryptamine receptor 1A (Homo sapiens) (UniProt P08908); assay: Agonist activity at human 5HT1A receptor expressed in CHO membrane assessed as stimulation of [35S]GTPgammaS binding relative to 5HT; assay type: functional, cell membranes
T3 sequence (whole entry): T1 sequence (P08908 whole entry)

Chain of Sodium-dependent serotonin transporter (P31652 whole entry): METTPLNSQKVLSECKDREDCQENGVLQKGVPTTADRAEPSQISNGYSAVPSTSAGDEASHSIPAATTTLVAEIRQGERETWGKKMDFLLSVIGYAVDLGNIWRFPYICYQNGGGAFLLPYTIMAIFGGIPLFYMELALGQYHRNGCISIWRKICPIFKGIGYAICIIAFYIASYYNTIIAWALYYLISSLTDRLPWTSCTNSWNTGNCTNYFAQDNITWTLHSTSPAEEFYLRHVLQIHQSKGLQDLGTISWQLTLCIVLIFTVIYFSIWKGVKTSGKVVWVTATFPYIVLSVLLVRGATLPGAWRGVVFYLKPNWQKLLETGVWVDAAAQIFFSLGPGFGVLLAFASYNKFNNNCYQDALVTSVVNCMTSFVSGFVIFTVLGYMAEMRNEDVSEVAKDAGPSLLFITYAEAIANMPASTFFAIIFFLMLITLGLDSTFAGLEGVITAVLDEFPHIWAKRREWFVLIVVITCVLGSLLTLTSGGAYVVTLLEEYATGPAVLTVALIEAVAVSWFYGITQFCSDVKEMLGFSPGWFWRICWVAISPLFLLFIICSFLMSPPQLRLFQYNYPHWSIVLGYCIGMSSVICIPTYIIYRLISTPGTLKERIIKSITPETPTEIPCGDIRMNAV

Row | Compound | Ki [1] | Ki [2] | Ki [5] | also measured
1 | CCCN(CCCc1c[nH]c2ccc(F)cc12)C1COc2ccc3ncccc3c2C1 (racemic) | 0.0169 µM | 0.0635 µM | – | % inhibition [3]: 18%
2 | CCCN(CCCc1c[nH]c2ccc(F)cc12)C1COc2c(ccc3ncccc23)C1 (racemic) | 0.0124 µM | – | 1.2343 µM | % inhibition [4]: 46%
3 | Fc1ccc2[nH]cc(CCCCNC3COc4c(ccc5ncccc45)C3)c2c1 (racemic) | 0.0015 µM | – | – | % inhibition [4]: 47%; % inhibition [3]: 33%
4 | Fc1ccc2[nH]cc(CCCNC3COc4ccc5ncccc5c4C3)c2c1 (racemic) | – | – | 0.3242 µM | –
5 | CCCN(CCc1c[nH]c2ccc(F)cc12)C1COc2ccc3ncccc3c2C1 (racemic) | 0.0628 µM | – | 0.7112 µM | –
6 | CCCN(CCCCc1c[nH]c2ccc(F)cc12)C1COc2c(ccc3ncccc23)C1 (racemic) | – | – | – | % inhibition [4]: 21%; % inhibition [3]: 19%
7 | Fc1ccc2[nH]cc(CCCNC3COc4c(ccc5ncccc45)C3)c2c1 (racemic) | 0.0026 µM | 0.105 µM | 0.4895 µM | –
8 | COc1cccc2c1CC(NCCCc1c[nH]c3ccc(F)cc13)CO2 (racemic) | 0.0092 µM | 0.0704 µM | 0.7725 µM | –
9 | Fc1ccc2[nH]cc(CCNC3COc4ccc5ncccc5c4C3)c2c1 (racemic) | 0.0305 µM | – | 1.0787 µM | % inhibition [4]: 10%
10 | CCCN(CCCc1c[nH]c2ccc(F)cc12)C1COc2ccc3ncccc3c2C1 (single isomer, unassigned; (+)) [listing 1 of 2 here] | 0.0198 µM | 0.058 µM | – | % inhibition [3]: 38%; EC50 [6]: 0.301 µM
11 | Fc1ccc2[nH]cc(CCCNC3COc4c(ccc5ncccc45)C3)c2c1 (single isomer, unassigned; (+)) [listing 1 of 2 here] | 0.003 µM | 0.392 µM | 0.6237 µM | EC50 [6]: 0.332 µM
12 | CCCN(CCCc1c[nH]c2ccc(F)cc12)C1COc2ccc3ncccc3c2C1 (single isomer, unassigned; (+)) [listing 2 of 2 here] | – | – | – | Emax [7]: 100%
13 | Fc1ccc2[nH]cc(CCCNC3COc4c(ccc5ncccc45)C3)c2c1 (single isomer, unassigned; (+)) [listing 2 of 2 here] | – | – | – | Emax [7]: 75%
14 | Fc1ccc2[nH]cc(CCCNC3COc4ccc5ncccc5c4C3)c2c1 (single isomer, unassigned; (-)) [listing 1 of 2 here] | – | 0.314 µM | 0.221 µM | EC50 [6]: 0.116 µM
15 | Fc1ccc2[nH]cc(CCCNC3COc4c(ccc5ncccc45)C3)c2c1 (single isomer, unassigned; (-)) [listing 1 of 2 here] | 0.0012 µM | 0.0678 µM | 0.3877 µM | EC50 [6]: 0.172 µM
16 | Fc1ccc2[nH]cc(CCCNC3COc4c(ccc5ncccc45)C3)c2c1 (single isomer, unassigned; (-)) [listing 2 of 2 here] | – | – | – | Emax [7]: 100%
17 | Fc1ccc2[nH]cc(CCCNC3COc4ccc5ncccc5c4C3)c2c1 (single isomer, unassigned; (-)) [listing 2 of 2 here] | – | – | – | Emax [7]: 86%
18 | Fc1ccc2[nH]cc(CCCNC3COc4ccc5ncccc5c4C3)c2c1 (stereo in doubt; (+)-5) [listing 1 of 2 here] | – | 0.0239 µM | 0.5908 µM | –
19 | Fc1ccc2[nH]cc(CCCNC3COc4ccc5ncccc5c4C3)c2c1 (stereo in doubt; (+)-5) [listing 2 of 2 here] | – | – | – | Emax [7]: 100%
20 | CCCN(CCCc1c[nH]c2ccc(F)cc12)C1COc2ccc3ncccc3c2C1 (stereo in doubt; (-)-6) [listing 1 of 2 here] | 0.0088 µM | – | – | % inhibition [3]: 31%
21 | CCCN(CCCc1c[nH]c2ccc(F)cc12)C1COc2ccc3ncccc3c2C1 (stereo in doubt; (-)-6) [listing 2 of 2 here] | – | – | – | Emax [7]: 55%
